Measured values as given in patent US6683079B2, “3-(amino-or aminoalkyl) pyridinone derivatives and their use for the treatment of HIV related diseases” (Centre National de la Recherche Scientifique, priority 1998, dated 2004).

Tests used:
[1] = tested on: HIV-1 strain IIIB; assay: Retrovirucidal effect on HIV-1 strain IIIB (Table 3); format: cell-based; settings: for HIV1 pIC50 strain IIIB: pIC50=-log IC50, IC50 in M
Method: (§1) HIV-1 viral suspensions were obtained by coculture of MT4 cells and H9 cells chronically infected by HIV-ILai isolate. 200 μl of a cell supernatant containing viral particles (HIV-ILai: 100 TCID50) were incubated at room temperature with various concentrations of different inhibitors. After 3 hours, virions were washed through 0.02 μm anopore membrane in 1.5 mL Vectaspin tube (Whatman) for 10 minutes at 5 000 g. Each of the three subsequent washes was performed in the same conditions after the viral concentrate was refilled with 500 μL of RPMI medium. Then, the viral concentrate was readjusted to the initial volume with RPMI plus 10% foetal calf serum (FCS). The residual infectivity was assayed on P4 cells as described by CHARNEAU et al. (1994, J. Mol. Biol., 241, 651-662). Briefly, P4 cells were plated using 100 μL of DMEM medium plus 10% FCS in 96 plate multi-wells at 20×10^5 cells per mL. After overnight incubation at 37° C., the supernatant was discarded and the viral preparation (200 μL) was added. One day later the wells were washed three times in PBS. Each well was refilled with 200 μL of a reaction buffer containing 50 mM Tris-HCl pH 8.5, 100 mM 2-mercaptoethanol, 0.05% Triton X-100 and 5 mM 4-methylumbelliferyl β-D-galactopyranoside (MUG). After 3 hours at 37° C., the level of the reaction was measured in a fluorescence microplate reader.
(§2) The retrovirucidal effect of each pyridinone derivative listed in table 3 has been assayed according to the teachings of example 2, excepted that the anti-viral effect has been tested on the two following HIV-1 strains:
a) HIV-1 strain IIIB (see example 2);

[2] = tested on: HIV-1 strain 103 N; assay: Retrovirucidal effect on HIV-1 strain 103 N (Table 3); format: cell-based; settings: HIV-1 strain 103N (RT Lys-103 to Asn mutant); pIC50=-log IC50, IC50 in M
Method: as §1, §2
b) HIV-1 strain 103 N which is a mutant strain bearing a point mutation in the reverse transcriptase gene leading to an enzyme wherein the initial Lys-103 residue is replaced for a Asn residue.
The HIV-1 103 N strain has also been described by SAHLBERG et al.,(1998, Antiviral Res., 37 (3): ASS) and BALZARiNI et al. (1996, Antimicrobial Agents and Chemotherapy, 40 (6): 1454-1466).

SMILES	HIV1 pIC50 strain IIIB [1]	HIV1 pIC50 strain 103N [2]	HIV1 pIC50 (pIC50=−log IC50) [1]
CCc1c(C)[nH]c(=O)c(N(C)C)c1[S+]([O-])c1cc(C)cc(C)c1 (centres unmarked) [Compound 170]	8.553	7.224	
CCc1c(C)[nH]c(=O)c(N(C)C)c1Cc1ccc(C)cc1 [Compound 18]	6.454	4.895	
CCc1[nH]c(=O)c(N(C)C)c(Cc2cc(C)cc(C)c2)c1C [Compound 28]	8.032	6.943	
CCc1c(C)[nH]c(=O)c(N(C)C)c1CN(C)Cc1ccccc1 [Compound 102]	4.369	<4	
CCc1cccc(Cc2c(CC)c(C)[nH]c(=O)c2N(C)C)c1 [Compound 99]	8.569	6.718	
CCc1c(C)[nH]c(=O)c(N(C)C)c1C(O)c1cc(C)cc(C)c1 (centres unmarked) [Compound 48]	8	6.711	
CCc1c(C)[nH]c(=O)c(N(C)C)c1Cc1ccc2ccccc2c1 [Compound 10]	6.241	4.389	
CCc1c(C)[nH]c(=O)c(N(C)CCO)c1Cc1cccc(C)c1 [Compound 145]	8.42	6.028	
CCc1c(C)[nH]c(=O)c(N)c1Cc1ccc(C)cc1C [Compound 31]	<4	<4	
CCc1c(C)[nH]c(=O)c(N(C)CCOC)c1Cc1cccc(C(F)(F)F)c1 [Compound 161]	7.821	5.814	
CCc1c(C)[nH]c(=O)c(N(C)C(C)C)c1Cc1cc(C)cc(C)c1 [Compound 79]	6.987	5.47	
CCc1c(C)[nH]c(=O)c(N(C)C)c1Cc1cccc(Br)c1 [Compound 60]	8.444	7.001	
CCc1c(C)[nH]c(=O)c(N(C)C)c1C(=O)c1cc(Br)cs1 [Compound 187]	8.481	7.006	
CCc1c(C)[nH]c(=O)c(N)c1C(OC)c1cc(C)cc(C)c1 (centres unmarked) [Compound 73]	8.027	6.92	
Cc1cc(C)cc(Cc2cc(CCC(C)C)[nH]c(=O)c2N(C)C)c1 [Compound 77]	5.827	<4	
Cc1cc(C)cc(Cc2cc[nH]c(=O)c2N(C)C)c1 [Compound 16]	5.061	4.401	
CCc1c(C)[nH]c(=O)c(N)c1CNCc1ccccc1 [Compound 80]	<4	<4	
Cc1cc(C)cc(Cc2c(C)c(C)[nH]c(=O)c2N)c1 [Compound 32]	6.104	<5	
CCc1c(C)[nH]c(=O)c(N)c1CN(C)Cc1ccccc1 [Compound 97]	<4	<4	
CCc1c(C)[nH]c(=S)c(N(C)C)c1C(=O)c1cc(C)cc(C)c1 [Compound 138]	8.215	7.401	
CCc1c(C)[nH]c(=O)c(N)c1C(=O)c1cccc(C)c1 [Compound 87]	6.46	5.653	
CCc1c(C)[nH]c(=O)c(N(C)C)c1Cc1cn(C)c2ccccc12 [Compound 43]	7.377	6.422	
CCc1c(C)[nH]c(=O)c(N(C)C)c1Sc1cc(C)cc(C)c1 [Compound 149]	8.959	7.883	
CCc1c(C)[nH]c(=O)c(N)c1Sc1cc(C)cc(C)c1 [Compound 1]	7.699	6.671	7,6999
CCc1c(C)[nH]c(=O)c(N(C)C)c1CSc1cccc(C)c1 [Compound 166]	5.693	4.518	
Cc1cccc(Cc2c(C)c(C)[nH]c(=O)c2N(C)C)c1 [Compound 86]	7.863	5.936	
